Results from US7651978B2, “Selective herbicides based on a substituted phenylsulphonylaminocarbonyl-triazolinone” (Arysta LifeScience North America, LLC, priority 1998, dated 2010).
Counter-ions that a name gives are not always drawn.

Key:
wheat [1] = test: Post-emergence tests/outdoors (Example C, Canada), crop damage; type: in vivo, summer wheat; conditions: in vivo
Method: Post-Emergence Tests/Outdoors In addition to the comparative compounds (B) and (D), the sodium salt of the compound of the formula (I) was tested under outdoor conditions in the main cultivation areas of summer wheat in Canada against economically important weeds. The small-plot experiments were carried out on cultivated land under agricultural use. Areas with particularly extensive weed growth were chosen preferably. The active compounds were applied across the area by the spray method, with an average droplet size. To produce a useful preparation of active compound, the active compounds were formulated as 70 WP (70% w/w water-dispersible powder) and applied with customary amounts of water. Wetting of the plants was improved by addition of a surface-active substance (SAS) in the concentrations recommended by the respective manufacturer. To assess the crop compatibility, from 1 to 8 weeks after the treatment, plant growth inhibitions or […] of the leaf area were assessed in % damage in comparison to the development of the untreated control. At different intervals after the treatment, the herbicidal activity was assessed as % reduction in comparison to the untreated control, based on the weed development. The figures denote: • 0%=no damage of the crops or no herbicidal effect, • 100%=total destruction of the crops or the weeds.

Thlaspi arvense = test: Post-emergence tests/outdoors (Example D, Canada and USA); type: in vivo; conditions: outdoors, 28–30 g of a.i./ha + SAS, 70 WP or 70 WG, 45 tests
Method: (§1) Post-Emergence Tests/Outdoors The sodium salt of the compound of the formula (I) was tested under outdoor conditions in the main cultivation areas of summer wheat in Canada and the USA against economically important weeds. The small-plot experiments were carried out on cultivated land under agricultural use, with cultivation and climate conditions which can be considered to be representative for the period of the trial. Areas with particularly extensive weed growth were chosen by way of preference. The active compound was applied across the area by the spray method, with an average droplet size. To produce a useful preparation of active compound, the active compound was formulated as 70 WP or 70 WG (70% w/w water-dispersible powder or granules) and applied with customary amounts of water. Wetting of the plants was improved by addition of a surface-active substance (SAS) in the concentration recommended by the manufacturer. To assess the crop compatibility, from 1 to 8 weeks after the treatment, plant growth inhibitions or […] of the leaf area were assessed in % damage in comparison to the development of the untreated control. At different intervals after the treatment, the herbicidal activity was assessed as % reduction in comparison to the untreated control, based on the weed development. The figures denote: • 0%=no damage of the crops or no herbicidal effect, • 100%=total destruction of the crops or the weeds.

Brassica spp. = test: as above; type: in vivo; conditions: outdoors, 28–30 g of a.i./ha + SAS, 70 WP or 70 WG, 27 tests
Method: as §1

Capsella bursa-pastoris = test: as above; type: in vivo; conditions: outdoors, 28–30 g of a.i./ha + SAS, 70 WP or 70 WG, 12 tests
Method: as §1

Setaria viridis = test: as above; type: in vivo; conditions: outdoors, 28–30 g of a.i./ha + SAS, 70 WP or 70 WG, 102 tests
Method: as §1

Sinapis arvensis = test: as above; type: in vivo; conditions: outdoors, 28–30 g of a.i./ha + SAS, 70 WP or 70 WG, 48 tests
Method: as §1

Amaranthus retroflexus = test: as above; type: in vivo; conditions: outdoors, 28–30 g of a.i./ha + SAS, 70 WP or 70 WG, 60 tests
Method: as §1

Avena fatua = test: as above; type: in vivo; conditions: outdoors, 28–30 g of a.i./ha + SAS, 70 WP or 70 WG, 263 tests
Method: as §1

Wheat [2] = test: Post-emergence test/greenhouse; type: in vivo; conditions: wheat, in vivo, 3 weeks
Method: (§2) Post-Emergence Test/Greenhouse [table] To produce a suitable preparation of active compound, 1 part by weight of active compound is mixed with the stated amount of solvent, the stated amount of emulsifier is added and the concentrate is diluted with water to the desired concentration. Test plants which have a height of 5-15 cm are sprayed with the preparation of active compound such that the particular amounts of active compound desired are applied per unit area. The concentration of the spray liquor is chosen so that the particular amounts of active compound desired are applied in 500 ml of water/ha. After three weeks, the degree of damage to the plants is assessed in % damage in comparison to the development of the untreated control. The figures denote: • 0%=no effect (like untreated control) • 100%=total destruction

Lolium = test: Post-emergence test/greenhouse; type: in vivo; conditions: 60 g ai./ha, after three weeks
Method: as §2

Bromus = test: Post-emergence test/greenhouse; type: in vivo; conditions: 60 g ai./ha, after three weeks
Method: as §2

Veronica = test: Post-emergence test/greenhouse; type: in vivo; conditions: 60 g ai./ha, after three weeks
Method: as §2

Alopecurus = test: Post-emergence test/greenhouse; type: in vivo; conditions: 504 h, after three weeks, read-out: degree of damage, Alopecurus
Method: as §2

Agropyron = test: Post-emergence test/greenhouse; type: in vivo; conditions: 60 g ai./ha, after three weeks
Method: as §2

Setaria = test: Post-emergence test/greenhouse; type: in vivo; conditions: after three weeks
Method: as §2

Avena = test: Post-emergence test/greenhouse; type: in vivo; conditions: after three weeks
Method: as §2

Wheat [3] = test: Pre-emergence test/greenhouse; type: in vivo; conditions: in vivo
Method: (§3) Pre-Emergence Test/Greenhouse Solvent: 5 parts by weight of acetone Emulsifier: 1 part by weight of alkylaryl polyglycol ether To produce a suitable preparation of active compound, 1 part by weight of active compound is mixed with the stated amount of solvent, the stated amount of emulsifier is added and the concentrate is diluted with water to the desired concentration. Seeds of the test plants are sown in normal soil. After about 24 hours, the soil is sprayed with the preparation of active compound such that the particular amount of active compound desired is applied per unit area. The concentration of the spray liquor is chosen so that the particular amount of active compound desired is applied in 500 ml of water per hectare. After three weeks, the degree of damage to the plants is assessed in % damage in comparison to the development of the untreated control. The figures denote: • 0%=no effect (like untreated control) • 100%=total destruction

Matricaria = test: Pre-emergence test/greenhouse; type: in vivo; conditions: 30 g of ai./ha, after three weeks
Method: as §3

Digitaria = test: Pre-emergence test/greenhouse; type: in vivo; conditions: 30 g of ai./ha, after three weeks
Method: as §3

Echinochloa = test: Pre-emergence test/greenhouse; type: in vivo; conditions: 30 g of ai./ha, after three weeks
Method: as §3

## COc1nn(C(=O)NS(=O)(=O)c2ccccc2OC(F)(F)F)c(=O)n1C [(I)-Na-salt, 2-(2-trifluoromethoxy-phenylsulphonylaminocarbonyl)-4-methyl-5-methoxy-2,4-dihydro-3H-1,2,4-triazol-3-one]
Wheat [1]
  crop compatibility compared with comparative compounds (B) and (D), in words: approximately the same compatibility
Thlaspi arvense
  herbicidal effect (%), Thlaspi arvense: 97%
Brassica spp.
  herbicidal effect (%), Brassica spp.: 93%
Capsella bursa-pastoris
  herbicidal effect (%), Capsella bursa-pastoris: 90%
Setaria viridis
  herbicidal effect (%), Setaria viridis: 94%
Sinapis arvensis
  herbicidal effect (%), Sinapis arvensis: 98%
Amaranthus retroflexus
  herbicidal effect (%), Amaranthus retroflexus: 90%
Avena fatua
  herbicidal effect (%), Avena fatua: 90%
Wheat [2]
  degree of damage, Wheat: 0%
Lolium
  degree of damage, Lolium: 90%
Bromus
  degree of damage, Bromus: 90%
Veronica
  degree of damage, Veronica: 90%
Alopecurus; 60 g ai./ha
  pest or weed control at 60 g/ha: 80%
Alopecurus; 125 g ai./ha
  pest or weed control at 125 g/ha: 90%
Agropyron
  degree of damage, Agropyron: 70%
Setaria; 60 g ai./ha
  degree of damage, Setaria: 100%
Setaria; 125 g ai./ha
  degree of damage, Setaria: 95%
Avena; 60 g ai./ha
  degree of damage, Avena: 70%
Avena; 125 g ai./ha
  degree of damage, Avena: 90%
Wheat [3]
  compatibility with crop plants (wheat), in words: very good compatibility
Wheat [3]; wheat, 3 weeks
  degree of damage, Wheat: 0%
Matricaria
  degree of damage, Matricaria: 100%
Digitaria
  degree of damage, Digitaria: 100%
Echinochloa
  degree of damage, Echinochloa: 80%
